Data reported in ChEMBL document CHEMBL1141739, “Donnaienin, a New Acetogenin Bearing a Hydroxylated Tetrahydrofuran Ring” (J Nat Prod, 1998).
Converted amounts (≈) assume the structure as drawn.

Experiments:
Format in all cases: functional, cell-based
KB = test: Cytotoxicity against human KB cells after 5 days by MTT method; settings: 120 h
HCT-8 = test: Cytotoxicity against human HCT8 cells after 5 days by MTT method; settings: HCT-8, 120 h
[1] = Cytotoxicity against human Bel cells after 5 days by MTT method; settings: 120 h

With `CCCCCCCCCCCCCC[C@H](O)[C@@H]1C[C@@H](O)[C@@H]([C@@H](O)CC[C@@H](O)CCCCC[C@@H](O)CC2=C[C@H](C)OC2=O)O1` [DONNAIENIN] the IC50 (KB) was > 10 µg/mL, the IC50 (HCT-8) was > 10 µg/mL and the IC50 [1] was 6.7 µg/mL (≈ 10.9 µM).
